This passage reports EC50 results from US20240124460A1, “METHODS AND COMPOSITIONS FOR TARGETED PROTEIN DEGRADATION” (Ranok Therapeutics (Hangzhou) Co. Ltd., priority 2020, published 2024).

Assay [1] deals with MV-4-11 human acute myeloid leukemia. Briefly: MV-4-11 CCK-8 proliferation assay. It is filed as cell-based. Particulars: Homo sapiens, MV4-11; MV-4-11 cells, 72 hr. On the procedure: (§1) The following cancer cell lines were employed: A549 human lung carcinoma (ATCC, #CCL-185); BT-474 human breast carcinoma (ATCC, #HTB-20); MDA-MB-231 human breast adenocarcinoma (ATCC, #CRM−HTB-26); MDA-MB-468 human breast adenocarcinoma (ATCC, #HTB-132); MV-4-11 human acute myeloid leukemia (ATCC, #CRL-9591); and U-87 MG human glioblastoma (ATCC, #HTB-14). Cell lines were cultured essentially according to ATCC recommendations.
(§2) 3-fold serial dilutions of each test compound were prepared ranging from 20 μM to 1.02 nM.
(§3) % Inhibition=100−(D−B)/(S−B)*100%. • S: Absorbance of cells treated with DMSO • D: Absorbance of compound-treated cells • B: Absorbance of medium with DMSO without cells

Assay [2] relates to U-87 MG human glioblastoma. Briefly: U87 MG CCK-8 proliferation assay. It is filed as cell-based. Particulars: Homo sapiens, U-87 MG, 72 h, U-87 MG cells, read-out: U87MG CCK-8. How it is done:
as §1, §2, §3
For orientation: Formazan colour is commonly taken as a measure of viable cells.

Turning to `CCCc1cc(-c2nnc(O)n2-c2ccc(CN3CCN(C(=O)C4CCN(c5ccc(Nc6ncc7c(n6)N(C)c6ccccc6C(=O)N7C)c(OCC)c5)CC4)CC3)cc2)c(O)cc1O` [Compound 050, 2-((4-(4-(4-(4-(3-(2,4-dihydroxy-5-propylphenyl)-5-hydroxy-4H-1,2,4-triazol-4-yl)benzyl)piperazine-1-carbonyl)piperidin-1-yl)-2-ethoxyphenyl)amino)-5,11-dimethyl-5,11-dihydro-6H-benzo[e]pyrimido[5,4-b][1,4]diazepin-6-one], the results for the EC50 in assay [1] and in assay [2] were less than 100 nM and 100 to 1000 nM, respectively.
On to `CCOc1cc(N2CCC(C(=O)NCCOCCOc3ccc(-n4c(O)nnc4-c4cc(CC)c(O)cc4O)cc3)CC2)ccc1Nc1ncc2c(n1)N(C)c1ccccc1C(=O)N2C` [Compound 014, 1-(4-((5,11-dimethyl-6-oxo-6,11-dihydro-5H-benzo[e]pyrimido[5,4-b][1,4]diazepin-2-yl)amino)-3-ethoxyphenyl)-N-(2-(2-(4-(3-(5-ethyl-2,4-dihydroxyphenyl)-5-hydroxy-4H-1,2,4-triazol-4-yl)phenoxy)ethoxy)ethyl)piperidine-4-carboxamide], for which the EC50 in assay [1] and in assay [2] was 100 to 1000 nM each time.
`CCOc1cc(N2CCC(C(=O)N3CCN(Cc4ccc(-n5c(C(=O)NCCN(CC)CC)nnc5-c5cc(C(C)C)c(O)cc5O)cc4)CC3)CC2)ccc1Nc1ncc2c(n1)N(S(C)(=O)=O)c1ccccc1C(=O)N2C` [Compound 164, N-(2-(diethylamino)ethyl)-5-(2,4-dihydroxy-5-isopropylphenyl)-4-(4-((4-(1-(3-ethoxy-4-((5-methyl-11-(methylsulfonyl)-6-oxo-6,11-dihydro-5H-benzo[e]pyrimido[5,4-b][1,4]diazepin-2-yl)amino)phenyl)piperidine-4-carbonyl)piperazin-1-yl)methyl)phenyl)-4H-1,2,4-triazole-3-carboxamide]: the EC50 in assay [1] and in assay [2] was less than 100 nM each time.
Turning to `CCOc1cc(N2CCC(C(=O)N3CCN(Cc4ccc(-n5c(C(=O)NCCN6CCN(S(C)(=O)=O)CC6)nnc5-c5cc(C(C)C)c(O)cc5O)cc4)CC3)CC2)ccc1Nc1ncc2c(n1)N(C)c1ccccc1C(=O)N2C` [Compound 172, 5-(2,4-dihydroxy-5-isopropylphenyl)-4-(4-((4-(1-(4-((5,11-dimethyl-6-oxo-6,11-dihydro-5H-benzo[e]pyrimido[5,4-b][1,4]diazepin-2-yl)amino)-3-ethoxyphenyl)piperidine-4-carbonyl)piperazin-1-yl)methyl)phenyl)-N-(2-(4-(methylsulfonyl)piperazin-1-yl)ethyl)-4H-1,2,4-triazole-3-carboxamide], the EC50 in assay [1] and in assay [2] was less than 100 nM throughout.
Consider `CCOc1cc(N2CCC(C(=O)N3CCC(CN4CCN(Cc5ccc(-n6c(C(=O)NC(C)C(F)(F)F)nnc6-c6cc(CC)c(OC(=O)C(C)C)cc6O)cc5)CC4)CC3)CC2)ccc1Nc1ncc2c(n1)N(S(C)(=O)=O)c1ccccc1C(=O)N2C` (stereo not shown) [Compound 161, 4-(4-(4-((4-((1-(1-(3-ethoxy-4-((5-methyl-11-(methylsulfonyl)-6-oxo-6,11-dihydro-5H-benzo[e]pyrimido[5,4-b][1,4]diazepin-2-yl)amino)phenyl)piperidine-4-carbonyl)piperidin-4-yl)methyl)piperazin-1-yl)methyl)phenyl)-5-((1,1,1-trifluoropropan-2-yl)carbamoyl)-4H-1,2,4-triazol-3-yl)-2-ethyl-5-hydroxyphenyl isobutyrate], for which the EC50 in assay [1] was less than 100 nM; in assay [2], 100 to 1000 nM.
Regarding `CCNC(=O)c1nnc(-c2cc(CC)c(O)cc2OC)n1-c1ccc(CN2CCN(CC3CCN(C(=O)C4CCN(c5ccc(Nc6ncc7c(n6)N(S(C)(=O)=O)c6ccccc6C(=O)N7C)c(OCC)c5)CC4)CC3)CC2)cc1` [Compound 171, 4-(4-((4-((1-(1-(3-ethoxy-4-((5-methyl-11-(methylsulfonyl)-6-oxo-6,11-dihydro-5H-benzo[e]pyrimido[5,4-b][1,4]diazepin-2-yl)amino)phenyl)piperidine-4-carbonyl)piperidin-4-yl)methyl)piperazin-1-yl)methyl)phenyl)-N-ethyl-5-(5-ethyl-4-hydroxy-2-methoxyphenyl)-4H-1,2,4-triazole-3-carboxamide], the EC50 in assay [1] and in assay [2] was more than 1000 nM each time.
As for `CCOc1cc(N2CCC(CN3CCN(Cc4ccc(-n5c(C(=O)NC(C)C(F)(F)F)nnc5-c5cc(CC)c(O)cc5O)cc4)CC3)CC2)ccc1Nc1ncc2c(n1)N(C1CCCC1)c1ccccc1C(=O)N2C` (stereo not shown) [Compound 186, 4-(4-((4-((1-(4-((11-cyclopentyl-5-methyl-6-oxo-6,11-dihydro-5H-benzo[e]pyrimido[5,4-b][1,4]diazepin-2-yl)amino)-3-ethoxyphenyl)piperidin-4-yl)methyl)piperazin-1-yl)methyl)phenyl)-5-(5-ethyl-2,4-dihydroxyphenyl)-N-(1,1,1-trifluoropropan-2-yl)-4H-1,2,4-triazole-3-carboxamide], the EC50 in assay [1] is 100 to 1000 nM; in assay [2], more than 1000 nM.
On to `CCOc1cc(N2CCC(CN3CC4(CCN(Cc5ccc(-n6c(O)nnc6-c6cc(C(C)C)c(O)cc6O)cc5)CC4)C3)CC2)ccc1Nc1ncc2c(n1)N(S(C)(=O)=O)c1ccccc1C(=O)N2C` [Compound 183, 2-((4-(4-((7-(4-(3-(2,4-dihydroxy-5-isopropylphenyl)-5-hydroxy-4H-1,2,4-triazol-4-yl)benzyl)-2,7-diazaspiro[3.5]nonan-2-yl)methyl)piperidin-1-yl)-2-ethoxyphenyl)amino)-5-methyl-11-(methylsulfonyl)-5,11-dihydro-6H-benzo[e]pyrimido[5,4-b][1,4]diazepin-6-one], for which the EC50 is less than 100 nM in assay [1] and 100 to 1000 nM in assay [2].
Take `CCOc1cc(N2CCC(C(=O)N3CCN(Cc4ccc(-n5c(C(=O)NCC(F)(F)C(F)(F)F)nnc5-c5cc(C(C)C)c(O)cc5O)cc4)CC3)CC2)ccc1Nc1ncc2c(n1)N(C)c1ccccc1C(=O)N2C` [Compound 173, 5-(2,4-dihydroxy-5-isopropylphenyl)-4-(4-((4-(1-(4-((5,11-dimethyl-6-oxo-6,11-dihydro-5H-benzo[e]pyrimido[5,4-b][1,4]diazepin-2-yl)amino)-3-ethoxyphenyl)piperidine-4-carbonyl)piperazin-1-yl)methyl)phenyl)-N-(2,2,3,3,3-pentafluoropropyl)-4H-1,2,4-triazole-3-carboxamide]: the EC50 in assay [1] and in assay [2] was less than 100 nM throughout.
On to `CCOc1cc(N2CCC(C(=O)NCCCOc3ccc(-c4ccc(NC(=O)c5ccc(OC)c(-c6cccc(OC)c6)c5)cc4)cc3)CC2)ccc1Nc1ncc2c(n1)N(C)c1ccccc1C(=O)N2C` [Compound 147, N-(3-((4′-(3′,6-dimethoxy-[1,1′-biphenyl]-3-carboxamido)-[1,1′-biphenyl]-4-yl)oxy)propyl)-1-(4-((5,11-dimethyl-6-oxo-6,11-dihydro-5H-benzo[e]pyrimido[5,4-b][1,4]diazepin-2-yl)amino)-3-ethoxyphenyl)piperidine-4-carboxamide], for which the EC50 in assay [1] and in assay [2] was more than 1000 nM in each case.
Consider `CCOc1cc(N2CCC(C(=O)NCCCOc3ccc(-c4ccc(NC(=O)c5ccc(OC)c(-c6cccc(OC)c6)c5)cc4)cc3)CC2)ccc1Nc1ncc2c(n1)N(S(C)(=O)=O)c1ccccc1C(=O)N2C` [Compound 148, N-(3-((4′-(3′,6-dimethoxy-[1,1′-biphenyl]-3-carboxamido)-[1,1′-biphenyl]-4-yl)oxy)propyl)-1-(3-ethoxy-4-((5-methyl-11-(methylsulfonyl)-6-oxo-6,11-dihydro-5H-benzo[e]pyrimido[5,4-b][1,4]diazepin-2-yl)amino)phenyl)piperidine-4-carboxamide], for which the EC50 in assay [1] and in assay [2] was more than 1000 nM throughout.
For `CCOc1cc(N2CCC(C(=O)NCc3ccc(CN(CC)Cc4ccc(-n5c(O)nnc5-c5cc(C(C)C)c(O)cc5O)cc4)cc3)CC2)ccc1Nc1ncc2c(n1)N(C)c1ccccc1C(=O)N2C` [Compound 165, N-(4-(((4-(3-(2,4-dihydroxy-5-isopropylphenyl)-5-hydroxy-4H-1,2,4-triazol-4-yl)benzyl)(ethyl)amino)methyl)benzyl)-1-(4-((5,11-dimethyl-6-oxo-6,11-dihydro-5H-benzo[e]pyrimido[5,4-b][1,4]diazepin-2-yl)amino)-3-ethoxyphenyl)piperidine-4-carboxamide], the EC50 in assay [1] is less than 100 nM; in assay [2], 100 to 1000 nM.
The corresponding values for `CCOc1cc(N2CCC(CN3CCN(Cc4ccc(-n5c(C(=O)NC(C)C(F)(F)F)nnc5-c5cc(CC)c(O)cc5O)cc4)CC3)CC2)ccc1Nc1ncc2c(n1)N(S(C)(=O)=O)c1ccccc1C(=O)N2C` (stereo not shown) [Compound 185, 4-(4-((4-((1-(3-ethoxy-4-((5-methyl-11-(methylsulfonyl)-6-oxo-6,11-dihydro-5H-benzo[e]pyrimido[5,4-b][1,4]diazepin-2-yl)amino)phenyl)piperidin-4-yl)methyl)piperazin-1-yl)methyl)phenyl)-5-(5-ethyl-2,4-dihydroxyphenyl)-N-(1,1,1-trifluoropropan-2-yl)-4H-1,2,4-triazole-3-carboxamide] are less than 100 nM and 100 to 1000 nM.
As for `CCOc1cc(N2CCC(C(=O)N3CCC(COc4ccc(-c5ccc(NC(=O)c6ccc(OC)c(-c7cccc(OC)c7)c6)cc5)cc4)CC3)CC2)ccc1Nc1ncc2c(n1)N(C)c1ccccc1C(=O)N2C` [Compound 145, N-(4′-((1-(1-(4-((5,11-dimethyl-6-oxo-6,11-dihydro-5H-benzo[e]pyrimido[5,4-b][1,4]diazepin-2-yl)amino)-3-ethoxyphenyl)piperidine-4-carbonyl)piperidin-4-yl)methoxy)-[1,1′-biphenyl]-4-yl)-3′,6-dimethoxy-[1,1′-biphenyl]-3-carboxamide], the EC50 in assay [1] and in assay [2] was more than 1000 nM in each case.
